We go through 30 compounds from US10947213B1 (Merck Patent GmbH, priority 2015, dated 2021).

The target of the assay is T1, TLR7/NFKb HEK cells (Homo sapiens, UniProt Q9NYK1).
T1 construct: expressed in transfected cells; host or cells: HEK cells (TLR7/NFKb reporter line)
T1 sequence (Q9NYK1 27-1049): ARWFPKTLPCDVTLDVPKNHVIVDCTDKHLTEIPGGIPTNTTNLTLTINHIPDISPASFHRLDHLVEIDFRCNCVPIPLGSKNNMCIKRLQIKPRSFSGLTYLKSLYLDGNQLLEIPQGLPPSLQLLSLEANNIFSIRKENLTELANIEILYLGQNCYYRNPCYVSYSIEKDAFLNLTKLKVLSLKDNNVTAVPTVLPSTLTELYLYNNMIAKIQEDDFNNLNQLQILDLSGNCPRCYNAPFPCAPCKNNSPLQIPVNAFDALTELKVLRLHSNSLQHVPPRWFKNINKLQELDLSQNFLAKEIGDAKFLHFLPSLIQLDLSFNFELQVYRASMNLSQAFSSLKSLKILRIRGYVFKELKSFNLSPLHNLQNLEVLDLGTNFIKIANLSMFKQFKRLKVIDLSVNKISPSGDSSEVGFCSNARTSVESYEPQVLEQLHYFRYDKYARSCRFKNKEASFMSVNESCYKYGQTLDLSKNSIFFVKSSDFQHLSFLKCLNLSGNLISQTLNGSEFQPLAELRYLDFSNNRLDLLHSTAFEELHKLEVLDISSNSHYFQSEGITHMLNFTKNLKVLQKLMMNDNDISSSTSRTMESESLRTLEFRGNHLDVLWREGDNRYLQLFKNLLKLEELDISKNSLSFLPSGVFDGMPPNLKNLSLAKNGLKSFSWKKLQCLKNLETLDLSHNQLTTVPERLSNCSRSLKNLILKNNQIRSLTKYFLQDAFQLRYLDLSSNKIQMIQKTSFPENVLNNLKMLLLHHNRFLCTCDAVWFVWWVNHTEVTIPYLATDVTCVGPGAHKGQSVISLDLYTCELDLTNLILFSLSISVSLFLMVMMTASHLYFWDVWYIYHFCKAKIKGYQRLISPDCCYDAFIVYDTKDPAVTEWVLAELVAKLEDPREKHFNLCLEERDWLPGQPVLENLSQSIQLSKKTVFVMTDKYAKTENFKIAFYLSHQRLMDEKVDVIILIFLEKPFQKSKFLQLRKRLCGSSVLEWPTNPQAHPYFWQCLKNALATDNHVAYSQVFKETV
As to the kind of experiment: HEK Cell Assay (TLR7/NFKb reporter, Steady-Glo luciferase readout). To be noted: 30 min compound preincubation, then R*48 agonist for 5 hours, read-out: Potency. Format: cell-based. The protocol: Example 142: HEK Cell Assay
Into 384 CulturePlates (Corning 3707) was placed 5000 c/w of TLR7/NFKb HEK cells in 30 uL DMEM without Phenil red (gibco #31053) and 10% i.a. FCS and 2 mM L-ZGLutamin. The cells were incubated for 24 h at 37° C., 10% carbon dioxide and 90% relative humidity. 3 uL of controls, standards, and compounds were dispensed into wells, incubated for 30 min then 3 uL of R*48 agonist in 20 mM Hepes was added. After incubation for 5 hours, they were allowed to stand at room temperature for 15 min. To this was added 10 uL of Steady-Glo substrate reagent and shake assay plate for 5 min at 1500 rpm. The assay plate was allowed to sit for 30 min at room temperature and then the plate was read on EnVision.

Where a name gives a salt, the structure may show the parent alone. A value given as a limit tells only on which side of the number the result lay.

For the compound `C[C@H]1C[C@@H](NC2CCOC2)CN(c2ccnc3nccnc23)C1` (stereo partly drawn) [Compound 139, (3R,5S)-5-methyl-N-(oxolan-3-yl)-1-[pyrido[2,3-b]pyrazin-8-yl]piperidin-3-amine], the IC50 was over 10000 nM.
In the case of `CCN(CC)CCNCC1CCN(c2ccnc3ccc(F)cc23)CC1` [Compound 375, N,N-Diethyl-N′-[1-(6-fluoro-quinolin-4-yl)-piperidin-4-ylmethyl]-ethane-1,2-diamine], the IC50 was in the range of 1000 to 10000 nM.
As for `CC(C(=O)N[C@@H]1C[C@H](C)CN(c2ccc(C(F)(F)F)c3ncccc23)C1)N1CC(F)(F)C1` (stereo partly drawn) [Compound 287, 2-(3,3-difluoroazetidin-1-yl)-N-[(3R,5S)-5-methyl-1-[8-(trifluoromethyl)quinolin-5-yl]piperidin-3-yl]propanamide], the IC50 was under 1000 nM.
Consider `C[C@@H]1C[C@@H](C(=O)NCC2CCN(C)CC2)CN(c2ccc(C(F)(F)F)c3ncccc23)C1` (relative stereo) [Compound 548, trans-5-Methyl-1(8-trifluoromethyl-quinolin-5-yl)-piperidine-3-carboxylic acid (1-methyl-piperidin-4-ylmethyl)-amide], for which the IC50 was under 1000 nM.
In the case of `C[C@H]1C[C@@H](NC(=O)C(N)C(F)(F)F)CN(c2ccc(C#N)c3nccnc23)C1` (single isomer, unassigned) [Compound 113, hydrochloride] it was under 1000 nM; in that of `CC(C)[C@H](O)C(=O)NC1CC(C(F)(F)F)CN(c2ccc(C#N)c3ncccc23)C1` (single isomer, unassigned) [Compound 429], over 10000 nM.
As to `CCN1CCC(NC(=O)C2CC(C)CN(c3ccc(C#N)c4nccnc34)C2)CC1` (stereo not drawn) [Compound 540, 1-(8-Cyano-quinoxalin-5-yl)-5-methyl-piperidine-3-carboxylic acid (1-ethyl-piperidin-4-yl)-amide], the IC50 was under 1000 nM.
`C[C@H]1C[C@@H](NC(=O)C2CC(F)(F)C2)CN(c2ccc(C#N)c3nccnc23)C1` [Compound 235, N-[(3R,5S)-1-(8-cyanoquinoxalin-5-yl)-5-methylpiperidin-3-yl]-3,3-difluorocyclobutane-1-carboxamide]: the IC50 was under 1000 nM.
In the case of `C[C@H]1C[C@@H](NC(=O)[C@@H](N)Cc2cccnc2)CN(c2ccc(C#N)c3nccnc23)C1` [Compound 116, (2S)-2-amino-N-[(3R,5S)-1-(8-cyanoquinoxalin-5-yl)-5-methylpiperidin-3-yl]-3-(pyridin-3-yl)propanamide] it was under 1000 nM; in that of `C[C@H]1C[C@@H](NC(=O)CC2CC2(F)F)CN(c2ccc(C(F)(F)F)c3ncccc23)C1` (stereo partly drawn) [Compound 286, 2-(2,2-difluorocyclopropyl)-N-[(3R,5S)-5-methyl-1-[8-(trifluoromethyl)quinolin-5-yl]piperidin-3-yl]acetamide], under 1000 nM.
`CN[C@@H]1C[C@H](C)CN(c2ccnc3nccnc23)C1` [Compound 17, (3R,5S)—N,5-dimethyl-1-(pyrido[2,3-b]pyrazin-8-yl)piperidin-3-amine]: the IC50 is over 10000 nM.
`CC(C(=O)NC1CN(c2ccc(C#N)c3nccnc23)CC(F)(F)C1)N1CCOCC1` (stereo not drawn) [Compound 509, N-[1-(8-Cyano-quinoxalin-5-yl)-5,5-difluoro-piperidin-3-yl]-2-morpholin-4-yl-propionamide]: the IC50 was over 10000 nM.
For the compound `CN(C)CC(=O)NC1CN(c2ccc(C#N)c3ncccc23)CC(F)(F)C1` (single isomer, unassigned) [Compound 450], the IC50 lay in the range of 1000 to 10000 nM.
The value for `Cc1cc2c(N3C[C@@H](C)C[C@@H](N)C3)ccnc2n1C` [Compound 9, (3R,5S)-1-(1,2-dimethyl-1H-pyrrolo[2,3-b]pyridin-4-yl)-5-methylpiperidin-3-amine] was over 10000 nM; that for `C[C@H]1C[C@@H](NC(=O)C(N)C(F)(F)F)CN(c2ccc(C(N)=O)c3ncccc23)C1` (single isomer, unassigned) [Compound 184] was over 10000 nM; that for `C[C@@H]1CN(c2ccnc3nccnc23)C[C@H](CN2CCN(C)[C@@H](C)C2)O1` [Compound 53, (2S,6R)-2-(((S)-3,4-dimethylpiperazin-1-yl)methyl)-6-methyl-4-(pyrido[2,3-b]pyrazin-8-yl)morpholine] was under 1000 nM.
In the case of `Cc1ncc(N2C[C@@H](C)C[C@@H](NC(=O)CC3(N)CCCCC3)C2)c2cccnc12` [Compound 563, 2-(1-Amino-cyclohexyl)-N-[(3R,5S)-5-methyl-1-(8-methyl-[1,7]naphthyridin-5-yl)-piperidin-3-yl]-acetamide] it was under 1000 nM; in that of `COCCN[C@H]1CN(c2ccc(C#N)c3nccnc23)CC(C)(C)C1` [Compound 216, 8-[(5R)-5-[(2-methoxyethyl)amino]-3,3-dimethylpiperidin-1-yl]quinoxaline-5-carbonitrile], under 1000 nM.
With `N#Cc1ccc(N2CC(NC(=O)CC3(N)CCOCC3)CC(C(F)(F)F)C2)c2cccnc12` (racemic) [Compound 493, 2-(4-Amino-tetrahydro-pyran-4-yl)-N-[1-(8-cyano-quinolin-5-yl)-5-trifluoromethyl-piperidin-3-yl]-acetamide hydrochloride], the IC50 is under 1000 nM.
In the case of `CC(C)(C(=O)N[C@@H]1C[C@H](C(F)(F)F)CN(c2ccc(C#N)c3ncccc23)C1)N1CCCCC1` [Compound 576, N-[(3R,5S)-1-(8-Cyano-quinolin-5-yl)-5-trifluoromethyl-piperidin-3-yl]-2-piperidin-1-yl-isobutyramide] it was under 1000 nM; in that of `CN(C(=O)CN1CCOCC1)[C@H]1C[C@@H](C2CC2)CN(c2ccc(F)c3ncccc23)C1` (racemic) [Compound 368, cis-N-[5-cyclopropyl-1-(8-fluoroquinolin-5-yl)piperidin-3-yl]-N-methyl-2-(morpholin-4-yl)acetamide], over 10000 nM; in that of `COC(C)C(=O)N[C@@H]1C[C@H](C)CN(c2ccc(C#N)c3nccnc23)C1` (single isomer, unassigned) [Compound 159], 1000 to 10000 nM.
In the case of `C[C@H]1C[C@@H](NCC(N)=O)CN(c2ccc(C(F)(F)F)c3ncccc23)C1` [Compound 570] it was under 1000 nM; in that of `C[C@H]1C[C@@H](NC(=O)CO)CN(c2ccc(C(F)(F)F)c3ncccc23)C1` [Compound 240, 2-hydroxy-N-[(3R,5S)-5-methyl-1-[8-(trifluoromethyl)quinolin-5-yl]piperidin-3-yl]acetamide], under 1000 nM.
In the case of `C[C@H]1C[C@@H](NC(=O)C2(C)COC2)CN(c2ccc(C#N)c3nccnc23)C1` [Compound 36, N-((3R,5S)-1-(8-cyanoquinoxalin-5-yl)-5-methylpiperidin-3-yl)-3-methyloxetane-3-carboxamide] it was 1000 to 10000 nM; in that of `CC(C)(C)CC(=O)N[C@H]1C[C@@H](C(F)(F)F)CN(c2ccc(C#N)c3ncccc23)C1` (relative stereo) [Compound 431, cis-N-[1-(8-Cyano-quinolin-5-yl)-5-trifluoromethyl-piperidin-3-yl]-3,3-dimethyl-butyramide], under 1000 nM; in that of `CC(C(=O)NC1CN(c2ccc(C#N)c3nccnc23)CC(F)(F)C1)N1CCC1` (single isomer, unassigned) [Compound 508], 1000 to 10000 nM.
Take `CC(C)[C@H](O)C(=O)N[C@@H]1C[C@H](C)CN(c2ccc(C#N)c3nccnc23)C1` [Compound 20, (S)—N-((3R,5S)-1-(8-cyanoquinoxalin-5-yl)-5-methylpiperidin-3-yl)-2-hydroxy-3-methylbutanamide]: the IC50 was under 1000 nM.
In the case of `C[C@H]1C[C@@H](NC(=O)CC2CCN(CC(F)F)CC2)CN(c2ccc(C(F)(F)F)c3nccnc23)C1` [Compound 256, 2-[1-(2,2-difluoroethyl)piperidin-4-yl]-N-[(3R,5S)-5-methyl-1-[8-(trifluoromethyl)quinoxalin-5-yl]piperidin-3-yl]acetamide] it was under 1000 nM.
In the case of `C[C@H]1C[C@@H](NC(=O)[C@@H](C)N)CN(c2ccc(C#N)c3nccnc23)C1` [Compound 24, (R)-2-amino-N-((3R,5S)-1-(8-cyanoquinoxalin-5-yl)-5-methylpiperidin-3-yl)propanamide] it was under 1000 nM.
